Experimental data from patent publication US9061054B2, “ErbB-2 receptor targeting peptide” (The Curators of The University of Missouri, priority 2002, dated 2015).
Numbered stars: 1 amine (or outer) side, 2 acyl side, 3 side chain; on linkers, the order of the positions; unused ones are H or OH. Bridge positions count the residues as written; N and C are the ends. Square brackets hold non-standard residues; d marks the D form. Ends that are not written are not given here. Peptide text beside a SMILES is read from it. I, II: the chains in the order shown. Actinocin(9to1) = Cc1c2oc3c(C)ccc(C(=O)[*:1])c3nc-2c(C(=O)[*:2])c(N)c1=O; NMeV = CN[C@H](C(=O)O)C(C)C; Sar = CNCC(=O)O

Key:
[1] = in vivo; cited from earlier work
[2] = cited from earlier work
[3] = oral radioactive lomustine, about 30 mg/m^2 to 100 mg/m^2; cited from earlier work
multiple myeloma = settings: oral administration; cited from earlier work
[4] = cited from earlier work; for plasma protein binding: in vivo
[5] = tested on: BSA, bovine asialofetuin, and human IgG; experiment: Immunoblot analysis, control proteins; type: binding; settings: 6.25-50 ng on nitrocellulose, biotinylated peptide
Text: Binding activity of p6.1 peptide.

[6] = biological target: T1, ErbB-1 receptor from human carcinoma A431 cells (Homo sapiens, UniProt P00533); experiment: ELISA, immobilized ErbB-1; type: binding; settings: 100 ng protein per well; biotinylated peptide in 1:2 serial dilutions; OD 405 nm
T1 construct: ErbB-1 receptor from human carcinoma A431 cells; purchased Sigma #E-2645; host or cells: A431 human carcinoma cells (endogenous receptor, isolated by the vendor)

soluble ErbB-2-ECD = biological target: T2, soluble ErbB-2-ECD (Homo sapiens, UniProt P04626); experiment: Fluorescence quenching titration of ErbB-2-ECD; type: binding; settings: saturation conditions; excited at 300 nm, monitored at 350 nm
T2 construct: Purification and characterization of the recombinant extracellular domain of ErbB-2; made in house
Method: Fluorescence assay. The fluorescence titration studies were carved out using a SLM Aminco spectrofluorometer interfaced to a DEL 433/L PC running SLM Aminco 8100 series 2 software. The titrations were performed at 25° C. with varying amounts of peptide added to a fixed ErbB-2-ECD concentration (200-600 nM) in 2 ml of phosphate buffered saline (pH=7.4). Each measurement was collected for 5-20 sec after 1-2 min pre-equilibration. The excitation shutter remained closed during pre-equilibration of the sample and was opened only during data acquisition in order to minimize photobleaching of the sample. The fluorescence measurements were corrected for dilutions and photobleaching of ErbB-2-ECD. Values reported are an average of three independent measurements. […]
Fluorescence quenching studies were performed in order to evaluate the equilibrium dissociation constant of p6.1 to the soluble Erb-2-ECD. Intrinsic tryptophan fluorescence of the protein was monitored as a function of peptide concentration. Since p6.1 peptide contains a tyrosine residue, samples were excited at 300 nm and monitored at 350 nm to minimize the influence of tyrosine emission on tryptophan fluorescence. […] Theoretical curves were generated for the percentage of fluorescence quenching as a function of total peptide concentration (FIG. 2C).

ErbB-2-ECD [7] = biological target: T3, ErbB-2-ECD (Homo sapiens, UniProt P04626); settings: 6.25-50 ng protein on nitrocellulose; biotinylated peptide, 2 hrs RT
Method: Immunoblot analysis of binding activity of the p6.1 peptide. […] After washing three times with PBS, the membrane was incubated with 100 μg biotinylated peptide for 2 hrs at RT.
Binding activity of p6.1 peptide. The binding specificity of synthetic p6.1 peptide to recombinant ErbB-2-ECD was examined by immunoblot and ELISA procedures. Immunoblot analysis was performed to compare the binding activity of the p6.1 peptide to ErbB-2-ECD and several other non-ErbB-2 related proteins. Purified recombinant ErbB-2-ECD as well as BSA, bovine asialofetuin, and human IgG were spotted on a nitrocellulose membrane at various amounts and exposed to the biotinylated p6.1 peptide.

ErbB-2-ECD [8] = biological target: T3, ErbB-2-ECD; experiment: ELISA, immobilized ErbB-2-ECD
Method: ELISA. […] Wells were subsequently incubated with biotinylated peptide added to the wells by serial dilutions (1:2) at RT for 2 hr. […] The pNPP reaction was stopped with 3M NaOH. Optical density was measured at 405 nm in a microplate reader. All assays were performed at least three times in triplicate wells. Values are reported as an average of absorbence ±SD.

ErbB-2-ECD [9] = biological target: T3, ErbB-2-ECD; experiment: Affinity selection of phage display library; type: binding; parameters: Purification and characterization of the recombinant extracellular domain of ErbB-2; made in house; settings: 100 clones sequenced after four rounds of affinity selection; F3-6 library
Method: Affinity Selection. […] Biotinylated antigen was incubated with streptavidin coated plates for 2 hours at 4° C. In first and second round of selection 10 μg of biotinylated antigen per plate was added, in third round amount of antigen was decreased to 1 μg, and for fourth round of selection 0.1 μg of antigen was used. Unoccupied biotin-binding sites were blocked with 0.1 mM biotin. Phage was incubated with antigen for 4 hrs at RT. Plates were washed 10 times with TPBS to remove unbound phage. Bound phage was eluted with elution buffer (0.1 M HCl, pH is adjusted to 2.2 with glycine, 1 mg/ml BSA, 0.1 mg/ml phenol red) at RT during 10 min. […] After each round, except the last, the eluate of the bound phage was propagated and used as input for the next round. Individual clones were characterized by DNA sequencing after the fourth round of selection.
A random 6-amino acid peptide bacteriophage display library was affinity selected against the ErbB-2-ECD to identify novel peptide-ligands.

[10] = tested on: DU-145 human prostate carcinoma cells; experiment: Direct cell binding assay, DU-145; type: cell-based; settings: fixed, non-permeabilized cells; biotinylated peptide 100 μM; antibody 1:100
Method: (§1) Cell Binding Assay. […] When cultures reached approximately 60-70% confluence, the cells were briefly washed with PBS, fixed with 4% formaldehyde solution in PBS for 30 min but not permeabilized, and preblocked for 1 hr with 2% bovine serum albumin (BSA) solution in PBS at 37° C. The cultivation chambers were removed and cells were incubated for 2 hr with solution of Neu (9G6) anti-ErbB-2 mouse monoclonal antibody (Santa Cruz Biotechnology) diluted 1:100 and biotinylated peptide (100 μM) in 2% solution BSA in PBS. The slides were washed three times with PBS followed by 1 hr incubation with Lissamine Rhodamineconjugated donkey anti-mouse IgG (Jackson ImmunoResearch Laboratories) and streptavidin-AMCA-S conjugate (Molecular Probes) in 2% BSA in PBS. After additional washes with PBS, the slides were mounted and analyzed by fluorescent microscopy using Rhodamine and UVA filter sets.
(§2) Direct Cell Binding Assay. The ability of the p6.1 to recognize cultured human cancer cells expressing native conformation of the ErbB-2 was examined.

[11] = tested on: MDA-MB-435 human breast carcinoma cells; experiment: Direct cell binding assay, MDA-MB-435; type: cell-based; settings: fixed, non-permeabilized cells; biotinylated peptide 100 μM; antibody 1:100
Method: as §1, §2

[12] = tested on: T-24 human bladder carcinoma cells; experiment: Direct cell binding assay, T-24 (negative control); type: cell-based; settings: biotinylated peptide 100 μM, antibody 1:100
Method: Cell Binding Assay. DU-145 (human prostate adenocarcinoma), MDA-MB-435 (human breast carcinoma), and T-24 (human bladder carcinoma) cells were grown directly on the same microscope slide using a 4 well Lab-Tek II chamber slide system (Nalge Nunc). When cultures reached approximately 60-70% confluence, the cells were briefly washed with PBS, fixed with 4% formaldehyde solution in PBS for 30 min but not permeabilized, and preblocked for 1 hr with 2% bovine serum albumin (BSA) solution in PBS at 37° C. The cultivation chambers were removed and cells were incubated for 2 hr with solution of Neu (9G6) anti-ErbB-2 mouse monoclonal antibody (Santa Cruz Biotechnology) diluted 1:100 and biotinylated peptide (100 μM) in 2% solution BSA in PBS. The slides were washed three times with PBS followed by 1 hr incubation with Lissamine Rhodamineconjugated donkey anti-mouse IgG (Jackson ImmunoResearch Laboratories) and streptavidin-AMCA-S conjugate (Molecular Probes) in 2% BSA in PBS. After additional washes with PBS, the slides were mounted and analyzed by fluorescent microscopy using Rhodamine and UVA filter sets.
Direct Cell Binding Assay. The ability of the p6.1 to recognize cultured human cancer cells expressing native conformation of the ErbB-2 was examined. High levels of ErbB-2 expression on DU-145 human prostate carcinoma cells has been reported previously (Zhau et al., 1992). […]

## Cc1c2oc3c(C)ccc(C(=O)N[C@@H]4C(=O)N[C@H](C(C)C)C(=O)N5CCC[C@H]5C(=O)N(C)CC(=O)N(C)[C@@H](C(C)C)C(=O)O[C@@H]4C)c3nc-2c(C(=O)N[C@@H]2C(=O)N[C@H](C(C)C)C(=O)N3CCC[C@H]3C(=O)N(C)CC(=O)N(C)[C@@H](C(C)C)C(=O)O[C@@H]2C)c(N)c1=O [Actinomycin D] (I: T[dV]P[Sar][NMeV] / II: T[dV]P[Sar][NMeV]; ester I:1-I:C, II:1-II:C; linker I:N-II:N via Actinocin(9to1))
[1]
  passage of the blood-brain barrier: does not pass

## O=NN(CCCl)C(=O)NCCCl [Carmustine, 1,3 bis(2-chloroethyl)-1-nitrosourea]
[2]
  solubility in water: poorly soluble

## O=NN(CCCl)C(=O)NC1CCCCC1 [Lomustine, 1-(2-chloro-ethyl)-3-cyclohexyl-1 nitrosourea]
[3]
  radioactivity excreted as degradation products within 24 hours: about half

## N[C@@H](Cc1ccc(N(CCCl)CCCl)cc1)C(=O)O [Melphalan]
Multiple myeloma
  patients with multiple myeloma showing a favorable response: one third to one half

## CC[C@]1(O)C[C@@H]2CN(CCc3c([nH]c4ccccc34)[C@@](C(=O)OC)(c3cc4c(cc3OC)N(C)[C@H]3[C@@](O)(C(=O)OC)[C@H](OC(C)=O)[C@]5(CC)C=CCN6CC[C@]43[C@@H]65)C2)C1 [vinblastine]
[4]
  plasma protein binding: bind to plasma proteins
  absorption after oral administration: Unpredictable absorption

## CC[C@]1(O)C[C@H]2CN(CCc3c([nH]c4ccccc34)[C@@](C(=O)OC)(c3cc4c(cc3OC)N(C=O)[C@H]3[C@@](O)(C(=O)OC)[C@H](OC(C)=O)[C@]5(CC)C=CCN6CC[C@]43[C@@H]65)C2)C1 [vincristine]
[4]
  plasma protein binding: bind to plasma proteins
  absorption after oral administration: Unpredictable absorption

## KCCYSL [p6.1, chemically synthesized]
[5]
  reaction with control proteins (immunoblot): did not react
[6]
  binding activity to ErbB-1 protein (ELISA): significant dose dependent binding activity
Soluble ErbB-2-ECD
  maximum quenching of tryptophanyl fluorescence: 20%
ErbB-2-ECD [7]
  binding to immobilized ErbB-2-ECD (immunoblot): bound only ErbB-2
ErbB-2-ECD [8]; 100 ng protein per well, biotinylated peptide in 1:2 serial dilutions, OD 405 nm
  binding activity to ErbB-2-ECD (ELISA): significant dose dependent binding activity
ErbB-2-ECD [8]; experimental ELISA data
  competition with Neu (9G6) antibody for the same binding site on the extracellular domain: do not compete
ErbB-2-ECD [9]
  % Of Clones: 75%

## WYAWML [p6.2]
ErbB-2-ECD [9]
  % Of Clones: 8%

## WYSWLL [p6.3]
ErbB-2-ECD [9]
  % Of Clones: 10%

## biotinylated p6.1: biotinylated analog of the p6.1 peptide KCCYSL, chemically synthesized (cysteine pairing not given here; also: biotinylated, place not given here)
[10]
  binding to DU-145 cells (fluorescent microscopy): bound
[11]
  binding to MDA-MB-435 cells (fluorescent microscopy): bound
[12]
  binding to T-24 cells (fluorescent microscopy): Neither the Neu (9G6) anti-ErbB-2 antibody, nor the biotinylated p6.1 bound
